This is an account of results in ChEMBL document CHEMBL3861980, “Discovery of Benzothiazole Scaffold-Based DNA Gyrase B Inhibitors” (J Med Chem, 2016).

Usually pIC50 stands for the negative decadic logarithm of the IC50, by convention in mol/L. As usually defined, the MIC is the lowest concentration found to suppress growth. Read a high MIC as weaker potency.

pIC50: −log10 of the molar value.

For assay [1], the target named is DNA gyrase subunit B (Escherichia coli, UniProt P0AES6).
Description: Inhibition of Escherichia coli DNA gyrase B ATP binding site assessed as reduction in supercoiling of relaxed pNO1 DNA after 30 mins in presence of biotinylated oligonucleotide by sybrGOLD staining based fluorescence assay
Assay [2] concerns the target DNA gyrase subunit B (Staphylococcus aureus, UniProt P0A0K8).
Description: Inhibition of Staphylococcus aureus DNA gyrase B ATP binding site assessed as reduction in supercoiling of relaxed pNO1 DNA after 30 mins in presence of biotinylated oligonucleotide by sybrGOLD staining based fluorescence assay
For the next assay, the system named is Enterococcus faecalis. Description: microbe, parasite or virus in culture. Conditions: ATCC 29212, 24 h, read-out: GI.
The subject of assay [3] is Escherichia coli. Description: Antibacterial activity against Escherichia coli ECM1194 lacking tolC gene by broth microdilution method. Type of assay: functional. A general note: Broth dilution looks for growth in wells or tubes with falling amounts of substance.
Assay [4] concerns Escherichia coli. As to the kind of experiment: Antibacterial activity against wild type Escherichia coli ECM1194 by broth microdilution method. The assay is classed as functional.
The subject of assay [5] is Escherichia coli. Description: Growth inhibition of Escherichia coli ATCC 25922 at 50 uM after 24 hrs by broth microdilution method. The assay is classed as functional. The following applies: ATCC 25922, 24 h, read-out: GI.
The test system of a further assay is Pseudomonas aeruginosa. As to the kind of experiment: Growth inhibition of Pseudomonas aeruginosa ATCC 27853 at 50 uM after 24 hrs by broth microdilution method. Type of assay: functional. Conditions: ATCC 27853, 24 h, read-out: GI.

Sequence of DNA gyrase subunit B (Staphylococcus aureus, UniProt P0A0K8) (P0A0K8 whole entry): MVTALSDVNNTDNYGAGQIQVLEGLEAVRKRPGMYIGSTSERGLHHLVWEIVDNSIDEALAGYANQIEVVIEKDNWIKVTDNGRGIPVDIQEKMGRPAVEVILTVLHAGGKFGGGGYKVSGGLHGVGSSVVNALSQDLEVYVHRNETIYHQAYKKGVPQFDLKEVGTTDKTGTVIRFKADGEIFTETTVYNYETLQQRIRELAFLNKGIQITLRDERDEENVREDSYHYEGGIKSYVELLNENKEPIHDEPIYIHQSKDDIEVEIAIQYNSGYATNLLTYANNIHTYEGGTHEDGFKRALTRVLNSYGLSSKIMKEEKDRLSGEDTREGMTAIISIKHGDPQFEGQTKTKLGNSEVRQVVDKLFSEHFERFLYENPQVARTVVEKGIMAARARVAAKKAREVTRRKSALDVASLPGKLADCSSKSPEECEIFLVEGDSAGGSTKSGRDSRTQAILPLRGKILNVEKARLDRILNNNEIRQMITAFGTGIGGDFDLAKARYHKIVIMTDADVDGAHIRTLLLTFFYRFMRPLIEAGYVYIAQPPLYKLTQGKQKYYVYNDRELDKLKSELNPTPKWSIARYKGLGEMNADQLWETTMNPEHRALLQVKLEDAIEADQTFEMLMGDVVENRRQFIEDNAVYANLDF
Description for Enterococcus faecalis: Growth inhibition of Enterococcus faecalis ATCC 29212 at 50 uM after 24 hrs by broth microdilution method

Regarding `COC(=O)CC(=O)Nc1nc2ccc(NC(=O)c3cc(Br)c(Br)[nH]3)cc2s1`, the negative-log IC50 (pIC50) at DNA gyrase subunit B [1] is 6.62; against DNA gyrase subunit B [2], below 4.00.
On the same counts, the results for `O=C(O)C(=O)Nc1nc2ccc(NC(=O)c3cc(Br)c(Br)[nH]3)cc2s1` are 7.42 and below 4.00.
On the same counts, the results for `O=C(O)CCC(=O)Nc1ccc2nc(NC(=O)c3cc(Br)c(Br)[nH]3)sc2c1` are 7.48 and below 4.00.
The like results for `COC(=O)CCC(=O)Nc1nc2ccc(NC(=O)c3cc(Br)c(Br)[nH]3)cc2s1` were, in that order, 6.06 and below 4.00.
On to `O=C(O)CCC(=O)Nc1ccc2nc(NC(=O)c3cc(Cl)c(Cl)[nH]3)sc2c1`, for which the results for the pIC50 on DNA gyrase subunit B [1] and against DNA gyrase subunit B [2] were 6.37 and 4.03, respectively.
The like results for `O=C(O)CC(=O)Nc1ccc2nc(NC(=O)c3cc(Cl)c(Cl)[nH]3)sc2c1` were, in that order, 6.92 and 5.07.
On the same counts, the results for `COC(=O)CC(=O)Nc1ccc2nc(NC(=O)c3cc(Cl)c(Cl)[nH]3)sc2c1` are 6.66 and below 4.00.
For the compound `CCOC(=O)C(=O)Nc1nc2ccc(NC(=O)c3cc(Cl)c(Cl)[nH]3)cc2s1`, the pIC50 is 5.74 against DNA gyrase subunit B [1] and below 4.00 against DNA gyrase subunit B [2]. The inhibition of growth at 50 µM in the assay on Enterococcus faecalis was 47%.
As for `COC(=O)CCC(=O)Nc1ccc2nc(NC(=O)c3cc(Br)c(Br)[nH]3)sc2c1`, the pIC50 against DNA gyrase subunit B [1] is 5.15; on DNA gyrase subunit B [2], below 4.00.
Regarding `O=C(O)C(=O)Nc1ccc2nc(NC(=O)c3cc(Cl)c(Cl)[nH]3)sc2c1`, on DNA gyrase subunit B [2], the negative-log IC50 (pIC50) is 6.29.
`CCOC(=O)C(=O)Nc1ccc2nc(NC(=O)c3cc(Br)c(Br)[nH]3)sc2c1`: the pIC50 against DNA gyrase subunit B [1] was 4.54; against DNA gyrase subunit B [2] it was below 4.00.
On the same counts, the results for `CCOC(=O)C(=O)Nc1nc2ccc(NC(=O)c3cc(Br)c(Br)[nH]3)cc2s1` are 7.09 and below 4.00.
As to `O=C(O)CC(=O)Nc1ccc2nc(NC(=O)c3cc(Br)c(Br)[nH]3)sc2c1`, the values for the MIC against Escherichia coli [3] and against Escherichia coli [4] were below 16 µg/mL and above 256 µg/mL, respectively. The inhibition of growth at 50 µM in the assay with Escherichia coli [5] turned out to be 12%; with Pseudomonas aeruginosa, 11%; in the assay with Enterococcus faecalis, 59%. Also, the pIC50 against DNA gyrase subunit B [1] is 6.85; on DNA gyrase subunit B [2] it was 5.25.
As to `Nc1ccc2nc(NC(=O)c3cc(Br)c(Br)[nH]3)sc2c1`, the pIC50 was 5.70 on DNA gyrase subunit B [1] and below 4.00 at DNA gyrase subunit B [2].
On the same counts, the results for `COC(=O)CCC(=O)Nc1ccc2nc(NC(=O)c3cc(Cl)c(Cl)[nH]3)sc2c1` are 4.46 and below 4.00.
As for `COC(=O)CC(=O)Nc1nc2ccc(NC(=O)c3cc(Cl)c(Cl)[nH]3)cc2s1`, the results for the pIC50 against DNA gyrase subunit B [1] and on DNA gyrase subunit B [2] were 5.10 and below 4.00, respectively.
The like results for `COC(=O)CC(=O)Nc1ccc2nc(NC(=O)c3cc(Br)c(Br)[nH]3)sc2c1` were, in that order, 5.70 and below 4.00.
On the same counts, the results for `CCOC(=O)C(=O)Nc1ccc2nc(NC(=O)c3cc(Cl)c(Cl)[nH]3)sc2c1` are below 4.00 and below 4.00.
The like results for `O=C(O)CCC(=O)Nc1nc2ccc(NC(=O)c3cc(Br)c(Br)[nH]3)cc2s1` were, in that order, 7.24 and below 4.00.
As for `Nc1ccc2nc(NC(=O)c3cc(Cl)c(Cl)[nH]3)sc2c1`, the negative-log IC50 (pIC50) on DNA gyrase subunit B [1] and against DNA gyrase subunit B [2] was below 4.00 each time.
